In the NIST ThermoML archive (doi:10.1016/j.fluid.2014.10.029):

Conditions: for mass density: 101.33 kPa, Liquid, Buoyancy - hydrostatic balance with magnetic suspension - one sinker

CCCCn1cc[n+](C)c1C.F[P-](F)(F)(F)(F)F [1-butyl-2,3-dimethylimidazolium hexafluorophosphate]
Wilhelmy plate
Conditions | surface tension liquid-gas [mN/m]
298.17 K | 44.42
313.07 K | 43.73
323.27 K | 43.16
333.13 K | 42.6
338.38 K | 42.38
343.51 K | 42.13
348.43 K | 41.89
353.08 K | 41.68
358.76 K | 41.41
364.84 K | 41.11

CCCC[n+]1cccc(C)c1.F[P-](F)(F)(F)(F)F [1-butyl-3-methylpyridinium hexafluorophosphate]
Wilhelmy plate
Conditions | surface tension liquid-gas [mN/m]
323.02 K | 43.24
327.6 K | 42.96
333.18 K | 42.58
338.24 K | 42.24
343.75 K | 41.89
348.09 K | 41.63
353.61 K | 41.3
358.09 K | 40.94
364.84 K | 40.51

CCCCCCCn1cc[n+](C)c1.F[P-](F)(F)(F)(F)F [1-heptyl-3-methylimidazolium hexafluorophosphate]
Conditions | mass density [kg/m3]
292.97 K | 1266.43
298.16 K | 1262.6
303.16 K | 1258.82
308.22 K | 1254.84
313.19 K | 1250.97
318.05 K | 1247.4
323.09 K | 1243.43
328.16 K | 1239.71
333.36 K | 1235.76
337.82 K | 1232.14
343.31 K | 1228.66
348.05 K | 1224.36
352.96 K | 1220.98
357.92 K | 1217.32
364.45 K | 1212.58

surface tension liquid-gas [mN/m]
Conditions | Ring tensiometer | Wilhemly plate
293.23 K | 36.05 | –
293.26 K | – | 36.06
298.15 K | 35.87 | 35.89
303.13 K | 35.6 | –
303.15 K | – | 35.6
308.2 K | 35.31 | –
308.21 K | – | 35.41
313.22 K | – | 35.13
313.26 K | 35.14 | –
318.05 K | – | 34.87
318.08 K | 34.74 | –
323.21 K | 34.65 | –
323.22 K | – | 34.65
328.1 K | – | 34.39
328.18 K | 34.3 | –
333.37 K | 34.07 | 34.13
337.89 K | – | 33.91
338.05 K | 33.75 | –
343.31 K | 33.7 | –
343.34 K | – | 33.68
348.16 K | – | 33.32
348.26 K | 33.24 | –
353.04 K | – | 33.18
357.99 K | 33.04 | –
358.04 K | – | 32.96
364.54 K | 32.62 | –
364.61 K | – | 32.67

CCCCCn1cc[n+](C)c1.F[P-](F)(F)(F)(F)F [1-methyl-3-pentylimidazolium hexafluorophosphate]
surface tension liquid-gas [mN/m]
Conditions | Ring tensiometer | Wilhelmy plate
262.89 K | 43.04 | –
268.06 K | 42.78 | –
273.2 K | – | 42.46
277.73 K | – | 42.19
277.78 K | 42.23 | –
283.1 K | 41.97 | –
283.17 K | – | 41.95
288.28 K | – | 41.53
288.29 K | 41.76 | –
292.81 K | 41.54 | 41.49
298.19 K | – | 41.24
298.2 K | 41.35 | –
303.11 K | 40.96 | –
303.12 K | – | 40.94
308.14 K | – | 40.68
308.16 K | 40.75 | –
313.06 K | 40.41 | 40.4
317.95 K | – | 40.17
317.98 K | 40.23 | –
323.19 K | 40.04 | –
323.2 K | – | 39.86
328.3 K | – | 39.63
328.37 K | 39.69 | –
333.51 K | 39.41 | –
333.52 K | – | 39.36
338.58 K | 39.09 | –
338.6 K | – | 39.1
342.99 K | 38.8 | –
343 K | – | 38.86
348.07 K | 38.64 | –
348.11 K | – | 38.64
353.27 K | 38.38 | –
353.3 K | – | 38.4
357.97 K | – | 38.11
358.34 K | 38.1 | –
362.98 K | – | 37.85

Conditions | mass density [kg/m3]
267.86 K | 1351.91
273.05 K | 1348.4
283.12 K | 1339.58
288.38 K | 1335.51
292.83 K | 1332.19
298.17 K | 1328.15
303.2 K | 1324.24
308.22 K | 1318.91
313.1 K | 1315.32
317.98 K | 1311.51
323.18 K | 1307.37
328.4 K | 1303.77
333.5 K | 1299.9
338.86 K | 1295.93
342.93 K | 1292.1
348 K | 1288.64
353.25 K | 1284.49
358.27 K | 1281.15
362.73 K | 1277.18

CCCn1cc[n+](C)c1.F[P-](F)(F)(F)(F)F [1-methyl-3-propylimidazolium hexafluorophosphate]
surface tension liquid-gas [mN/m]
Conditions | Ring tensiometer | Wilhelmy plate
293.21 K | – | 48.34
293.23 K | 47.98 | –
298.2 K | – | 47.99
298.23 K | 47.77 | –
303.01 K | – | 47.68
303.04 K | 48.03 | –
308.2 K | – | 47.36
308.21 K | 47.15 | –
313.17 K | – | 47.06
313.22 K | 47.18 | –
318.07 K | – | 46.74
318.17 K | 46.99 | –
323.11 K | – | 46.4
323.22 K | 46.76 | –
328.22 K | 46.09 | –
328.25 K | – | 46.06
333.39 K | 45.83 | –
333.45 K | – | 45.73
338.46 K | 45.38 | 45.41
343.28 K | 44.84 | –
343.3 K | – | 45.14
348.2 K | 44.8 | –
348.25 K | – | 44.78
352.68 K | – | 44.5
352.76 K | 44.38 | –
358.22 K | 43.88 | –
358.24 K | – | 44.23
364.96 K | – | 43.78
365.07 K | 43.64 | –

CCCCCCCCCn1cc[n+](C)c1.F[P-](F)(F)(F)(F)F [1-nonyl-3-methylimidazolium hexafluorophosphate]
surface tension liquid-gas [mN/m]
Conditions | Ring tensiometer | Wilhelmy plate
288.14 K | – | 33.2
288.18 K | 33.64 | –
293.07 K | 33.26 | 32.96
298.13 K | 32.86 | –
298.16 K | – | 32.7
303.11 K | – | 32.48
303.12 K | 32.8 | –
308.11 K | – | 32.27
308.13 K | 32.71 | –
313.16 K | – | 31.99
313.19 K | 32.4 | –
318.03 K | – | 31.76
318.06 K | 32.17 | –
323.07 K | – | 31.51
323.1 K | 31.89 | –
328 K | 31.7 | –
328.04 K | – | 31.25
332.93 K | 31.43 | –
332.95 K | – | 30.99
338.37 K | – | 30.75
338.49 K | 31.11 | –
343.34 K | – | 30.5
343.59 K | 30.88 | –
347.87 K | – | 30.23
347.9 K | 30.57 | –
352.81 K | – | 29.98
352.87 K | 30.32 | –
357.85 K | – | 29.76
358.12 K | 30.14 | –
365.11 K | 29.71 | –
365.22 K | – | 29.4

Conditions | mass density [kg/m3]
293.11 K | 1216.29
298.18 K | 1212.6
303.15 K | 1209.57
308.14 K | 1205.42
313.21 K | 1201.39
318.08 K | 1197.66
323.13 K | 1193.94
328.02 K | 1190.39
332.95 K | 1186.82
338.45 K | 1183.02
343.45 K | 1179.31
348.02 K | 1176.28
352.94 K | 1172.76
358.11 K | 1168.91
365.13 K | 1163.68
